Assay results: publication PMC5510653 (ACS chemical neuroscience, 2016)

Columns and labels:
[1] = test system: MPTP-treated parkinsonian monkeys; test: Motor behavior in MPTP-treated parkinsonian monkeys; format: in vivo, Rhesus monkeys
[2] = rhesus monkey
[3] = test system: MPTP-treated parkinsonian monkey; test: ECoG recordings and scoring of state of arousal and movements; format: in vivo, Rhesus monkey; conditions: ML218 3 mg/kg s.c., one monkey
[4] = rhesus monkey, in vivo, sc, 10 mg/kg
[5] = test system: haloperidol-induced catalepsy; conditions: haloperidol-induced catalepsy model in rats ref 38; cited from earlier work
[6] = test system: MDCK-MDR1 (MDCK-Pgp) cells
[7] = test system: electrical cardiac activities; test: Effects of ML218 on cardiac function; format: in vivo, Rhesus monkeys; conditions: ketamine sedation
TH immunolabeling = test: Post-mortem TH immunoperoxidase staining of striatum; format: in vivo, Rhesus monkeys; conditions: 7 MPTP-treated animals vs mean of 3 non-treated monkeys, mean ± SEM
slow-wave sleep = conditions: mice ref 39, 40; cited from earlier work

N[C@@H](Cc1ccc(O)c(O)c1)C(=O)O [L-DOPA, reference compound]
antiparkinsonian effects (number of movements, activity counts) ([1]; L-DOPA 5, 10, 15, 20 mg/kg i.m. in combination with benserazide): strong, dose-dependent antiparkinsonian effects

CC(C)(C)CCN1C[C@@H]2C(CNC(=O)c3cc(Cl)cc(Cl)c3)[C@@H]2C1 (stereo partly shown) [ML218]
Fu (fraction of unbound compound in plasma) [2]: 0.09
mean number of movements per 5 minute of observation ([3]; 2 hours of observation, vehicle 51.07 ± 6.42, p=0.016): 25.39 ± 4.52
sleep ratio ([3]; within 120 minutes, vehicle 0.09 ± 0.06, p=0.008): 0.54 ± 0.06
CSF Tmax [4]: 1 to 2 h
anti-cataleptic properties [5]: anti-cataleptic properties
Papp AB [6]: 2.6e^− 6 cm/sec
chronotropic effect (R-R interval) ([7]; 30 mg/kg s.c., ECG two hours after injection, 3 animals): minor negative chronotropic effects
effects on the other ECG parameters studied (PR, RT intervals) ([7]; 10 and 30 mg/kg s.c.): no consistent effects
effect of adding ML218 on L-DOPA-mediated responses ([1]; ML218 3 mg/kg s.c. 60 min before L-DOPA 10 mg/kg i.m. plus 2.5 mg/kg benserazide): did not alter the L-DOPA-mediated responses
activity counts compared to baseline ([1]; ML218 10 mg/kg s.c., p=0.002): reduced
number of movements compared to baseline ([1]; ML218 10 mg/kg s.c., p=0.006): reduced
antiparkinsonian effects (number of movements, activity counts) ([1]; ML218 1, 10 and 30 mg/kg s.c., observed from 1 hour after injection): no antiparkinsonian effects

CN1CC=C(c2ccccc2)CC1 [MPTP]
reduction of TH immunolabeling in the caudate (TH immunolabeling): 89 ± 3%
reduction of TH immunolabeling in the post-commissural putamen (TH immunolabeling): 87 ± 3%

C[C@@H](NC(=O)Cc1ccc(C2CC2)cc1)c1ccc(OCC(F)(F)F)cn1 [TTA-A2]
effect on slow-wave sleep (slow-wave sleep): promotes slow-wave sleep
